What was measured:
Human fibroblasts [1] = assay: Effect on biosynthesis of collagen (procollagen type (I) ELISA); format: cell-based; settings: 10^-4 M, 24 hours, relative to untreated control group = 100
Description: The effect of the hydroxy pyranone derivatives obtained in Examples 1˜6 on biosynthesis of collagen was compared with those of retinol and retinoic acid.
Human fibroblasts were seeded into a 24-well plate to a density of 10^5 cells/well and then cultured to 90% of growth. The plate was washed with PBS (phosphate buffered saline) and treated with test samples at a concentration of 10^−4M, and then incubated in a CO2 incubator for 24 hours. From its supernatant, procollagen production was measured with procollagen type (I) ELISA kit. The biosynthesis of collagen was evaluated as a relative value compared with that of the control group, which is not treated with sample and of which the value of biosyntheis of collagen was set to be 100.

white guinea pigs = assay: Phototoxicity test; format: in vivo; settings: 1% (w/v) solution, UVA 15 J/cm^2, observed at 24, 48 and 72 hours; for Phototoxic index: below 0.5 = no phototoxicity
Description: This test was performed for ten (10) white guinea pigs whose hairs on both sides of the backs were cut, and fixed. On the back of the guinea pig, six (6) test sites measuring 2.5 cm×2.5 cm, three (3) per each side, were sectioned. Right sites were prepared as controls with no irradiation (UV non-irradiation sites) and left sites were irradiated (UV irradiation sites). Vehicle (1,3-butylene glycol:ethanol=7:3) was used as a negative control, and 0.1% concentration of 8-MOP (methoxypsoralene) was used as a positive control; and 1% (w/v) solutions of the compounds of Examples 1˜6 were applied to either site with an amount of […] for each site. 30 minutes later, right sites were shielded with aluminum foil and UVA(320˜380 nm) was irradiated at a distance of about 10 cm therefrom with Waldmann to the final energy of 15 J/cm^2. After 24, 48 and 72 hours elapsed, skin response of guinea pig was observed. Erythema and edema were scored from 0 to 4 points as shown in the Table 3, and skin response was evaluated by summing the scores. Maximum scores were selected when measured on each elapsed time, i.e. 24, 48 and 72 hours, and irritation index was calculated according to the following equation 2. Then, phototoxic index was calculated according to the following equation 3.
[Equation 2] Irritation index=(Maximum of erythema+Maximum of edema)/Number of animals [Equation 3] Phototoxic index=(Irritation index of UV irradiation site)−(Irritation index of UV non-irradiation site)

rabbits = assay: Primary skin irritation test on animals (Draize P.I.I.); format: in vivo; settings: 1% in 1,3-butylene glycol:ethanol=7:3, 0.5 ml, observed 24 and 72 hours later
Description: This test was performed for six (6) healthy male rabbits whose hairs on both sides of the backs were cut. The compounds of Examples 1˜6 were dissolved in 1,3-butylene glycol:ethanol=7:3, to obtain 1% concentration of test samples. 0.5 ml of each test samples were applied to right side area of 2.5 cm×2.5 cm. No sample was treated on left side as a control. 24 hours and 72 hours later, skin abnormality such as erythema, crust and edema was observed. Based on the score of skin response, skin irritation was estimated according to Draize's P.I.I. (Primary Irritation Index) and compared with that of retinoic acid.

[2] = system: healthy females and males; assay: Human patch test; format: in vivo; settings: 1% in patch base; for Average Response (n = 30): calculated by equation 4, below 1 = no irritation; for Number of the subjected showing response, 24 hours later, − (No visible response) / Number of the subjected showing response, 24 hours later, ± (Mild erythema) / Number of the subjected showing response, 24 hours later, + (Intense erythema) / Number of the subjected showing response, 24 hours later, + + (Intense erythema with edema) / Number of the subjected showing response, 24 hours later, + + + (Intense erythema with edema and vesicle): n = 30, 24 hours later; for Number of the subjected showing response, 24 hours later, − (No visible response) / Number of the subjected showing response, 48 hours later, − (No visible response): grade 0; for Number of the subjected showing response, 24 hours later, ± (Mild erythema) / Number of the subjected showing response, 48 hours later, ± (Mild erythema): grade 1; for Number of the subjected showing response, 24 hours later, + (Intense erythema) / Number of the subjected showing response, 48 hours later, + (Intense erythema): grade 2; for Number of the subjected showing response, 24 hours later, + + (Intense erythema with edema) / Number of the subjected showing response, 48 hours later, + + (Intense erythema with edema): grade 3; for Number of the subjected showing response, 24 hours later, + + + (Intense erythema with edema and vesicle) / Number of the subjected showing response, 48 hours later, + + + (Intense erythema with edema and vesicle): grade 4; for Number of the subjected showing response, 48 hours later, − (No visible response) / Number of the subjected showing response, 48 hours later, ± (Mild erythema) / Number of the subjected showing response, 48 hours later, + (Intense erythema) / Number of the subjected showing response, 48 hours later, + + (Intense erythema with edema) / Number of the subjected showing response, 48 hours later, + + + (Intense erythema with edema and vesicle): n = 30, 48 hours later
Description: This test was performed for thirty (30) healthy females and males aged on average 24.8 years and having no experience of hypersensitivity, according to method of CTFA Guideline (The Cosmetic, Toiletry and Fragrance Association. Inc. Washington, D.C., 20023, 1991). Each compound of Examples 1˜6 was dissolved in patch base having the composition of Table 6 to be 1% concentration as for test materials, and 20 μl of each test materials was dropped into a Finn chamber respectively, then attached to the forearm of the subject and fixed with a micropore tape. After 24 hours of patching, the patches were removed and the test sites were marked with marking pen. The observations of the test sites were made after 24 and 48 hours from the patching.
The average response of Table 8 was calculated by the following equation 4. [formula]

Human fibroblasts [3] = assay: Collagenase-inhibiting effect (collagenase expression, ELISA kit); format: cell-based; settings: 10^-4 M, 24 hours, relative to untreated control group = 100
Description: The collagenase-inhibiting effect of hydroxy pyranone derivatives obtained in Examples 1˜6 was compared with those of retinol and retinoic acid.
Human fibroblasts were cultured in Dulbecco's Modified Eagle's Medium (DMEM) supplemented with 2.5% fetal bovine serum. The fibroblasts were seeded into a 96-well microtiter plate to a density of 5,000 cells/well, and then cultured to 70˜80% of growth. The plate was treated with test samples at a concentration of 10^−4M for 24 hours, then the cultured medium and the cells were raked up and recovered. From the recovered culture, collagenase production was measured with collagenase kit (Catalog #: RPN 2610) commercialized by Amersham Pharmacia Biotech. First, the recovered culture was added into a 96-well plate wherein primary collagenase antibodies were uniformly spread, and then antigen-antibody reaction was performed in an incubator for 3 hours. Later, secondary collagenase antibodies bonded with chromophore were added to the 96-well plate and reacted for 15 minutes. Then, color former was added thereto in order to induce development at the room temperature for 15 minutes, and 1M of sulfuric acid was added to stop the reaction. The reaction solution became yellow, and the color density depends on the progress of the reaction. The absorbance of the yellow 96-well plate was measured at 405 nm with absorptiometer. The expression of collagenase was calculated by the following equation 1. No sample was treated in the control group.
[Equation 1] The expression of collagenase (%)=[(Absorbance of test group)/(Absorbance of control group)]×100
The expression of collagenase was evaluated as a relative value compared with that of the control group of which the expression of collagenase was set to be 100.

Row | Structure (SMILES) | Biosynthesis of collagen (%) (Human fibroblasts [1]) | Evaluation (phototoxicity) (white guinea pigs) | Phototoxic index (white guinea pigs) | Evaluation (skin irritation) (rabbits) | P. I. I. (Primary Irritation Index) (rabbits) | Average Response (n = 30) [2] | Number of the subjected showing response, 24 hours later, − (No visible response) [2] | Number of the subjected showing response, 24 hours later, ± (Mild erythema) [2] | Number of the subjected showing response, 24 hours later, + (Intense erythema) [2] | Number of the subjected showing response, 24 hours later, + + (Intense erythema with edema) [2] | Number of the subjected showing response, 24 hours later, + + + (Intense erythema with edema and vesicle) [2] | Number of the subjected showing response, 48 hours later, − (No visible response) [2] | Number of the subjected showing response, 48 hours later, ± (Mild erythema) [2] | Number of the subjected showing response, 48 hours later, + (Intense erythema) [2] | Number of the subjected showing response, 48 hours later, + + (Intense erythema with edema) [2] | Number of the subjected showing response, 48 hours later, + + + (Intense erythema with edema and vesicle) [2] | Expression of collagenase (%) (Human fibroblasts [3])
1 | O=C(OCc1cc(=O)c(O)co1)c1ccc2c(c1)OCO2 [Compound of Ex. 1, (5-hydroxy-4-oxo-4H-pyran-2-yl)methyl 2H-benzo [3,4-d] 1,3-dioxolan-5-carboxylate] | 118 | No phototoxicity | 0 | No irritation | 0.375 | 0.83 | 28 | 2 | 0 | 0 | 0 | 30 | 0 | 0 | 0 | 0 | 83
2 | O=C(Oc1cc(=O)c(O)co1)c1ccc2c(c1)OCCO2 [Compound of Ex. 2, (5-hydroxy-4-oxo-4H-pyran-2-yl) 2H,3H-benzo [3,4-e] 1,4-dioxane-6-carboxylate] | 121 | No phototoxicity | 0 | No irritation | 0.345 | 0.42 | 30 | 0 | 0 | 0 | 0 | 29 | 1 | 0 | 0 | 0 | 81
3 | O=C(/C=C/c1ccc2c(c1)OCCO2)COc1cc(=O)c(O)co1 [Compound of Ex. 4, 2-((3E)-4-(2H,3H-benzo [3,4-e] 1,4-dioxan-6-yl)-2-oxobut-3-enyloxy)-5hydroxy-4-pyran-4-one] | 122 | No phototoxicity | 0 | No irritation | 0.350 | 0.42 | 29 | 1 | 0 | 0 | 0 | 30 | 0 | 0 | 0 | 0 | 77
4 | O=c1cc(/C=C/c2ccc3c(c2)OCO3)occ1O [Compound of Ex. 5, 2-((1E)-2-(2H,3H-benzo [3,4-d] 1,3-dioxolan-5-yl)vinyl)-5-hydroxy-4H-pyran-4-one] | 116 | No phototoxicity | 0 | No irritation | 0.375 | 0.00 | 30 | 0 | 0 | 0 | 0 | 30 | 0 | 0 | 0 | 0 | 88
5 | O=c1cc(/C=C/c2ccc3c(c2)OCCO3)occ1O [Compound of Ex. 6, 2-((1E)-2-(2H,3H-benzo [3,4-e] 1,4-dioxan-6-yl)vinyl)-5-hydroxy-4H-pyran-4-one] | 115 | No phototoxicity | 0 | No irritation | 0.315 | 0.00 | 30 | 0 | 0 | 0 | 0 | 30 | 0 | 0 | 0 | 0 | 84
6 | CC1=C(/C=C/C(C)=C/C=C/C(C)=C/C(=O)O)C(C)(C)CCC1 [Retinoic acid, reference compound] | 125 |  |  | Light irritation | 1.830 |  |  |  |  |  |  |  |  |  |  |  | 75
7 | CC1=C(/C=C/C(C)=C/C=C/C(C)=C/CO)C(C)(C)CCC1 [Retinol, reference compound] | 120 |  |  |  |  |  |  |  |  |  |  |  |  |  |  |  | 82
